“And” between values parts separate entries of the source, which are not always exact repeats. Equal values may be shown once. Toxic doses and inconclusive results are not listed. Rule for the calls: active = survival T/C of 150% or more; inactive = T/C below 125% in these data.
Tested on: P388 leukemia ip, CD2F1 mice, survival T/C
Assay: NCI In Vivo Anticancer Drug Screen. Data for tumor model P388 Leukemia (intraperitoneal) in CD2F1 (CDF1) mice
Conditions: endpoint: median survival time, higher = longer survival
In short: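 Mice carrying the transplanted tumor received test compound or vehicle. Survival was recorded in each group, and the value is the treated-group measurement divided by that of the vehicle-treated control group.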

[1] = dose: 50.0 mg/kg/injection, schedule: Q01DX005 (ip), vehicle: Klucel (hydroxypropylcellulose) (HPC)
[2] = dose: 100.0 mg/kg/injection, schedule: Q01DX005 (ip), vehicle: Klucel (hydroxypropylcellulose) (HPC)
[3] = dose: 200.0 mg/kg/injection, schedule: Q01DX005 (ip), vehicle: Klucel (hydroxypropylcellulose) (HPC)
[4] = dose: 25.0 mg/kg/injection, schedule: Q01DX005 (ip), vehicle: saline
[5] = dose: 50.0 mg/kg/injection, schedule: Q01DX005 (ip), vehicle: saline
[6] = dose: 100.0 mg/kg/injection, schedule: Q01DX005 (ip), vehicle: saline
[7] = dose: 200.0 mg/kg/injection, schedule: Q01DX005 (ip), vehicle: saline
[8] = dose: 30.0 mg/kg/injection, schedule: Q01DX005 (ip), vehicle: saline with Tween-80
[9] = dose: 60.0 mg/kg/injection, schedule: Q01DX005 (ip), vehicle: saline with Tween-80
[10] = dose: 120.0 mg/kg/injection, schedule: Q01DX005 (ip), vehicle: saline with Tween-80
[11] = dose: 240.0 mg/kg/injection, schedule: Q01DX005 (ip), vehicle: saline with Tween-80
[12] = dose: 50.0 mg/kg/injection, schedule: Q01DX009 (ip), vehicle: saline
[13] = dose: 100.0 mg/kg/injection, schedule: Q01DX009 (ip), vehicle: saline
[14] = dose: 200.0 mg/kg/injection, schedule: Q01DX009 (ip), vehicle: saline
[15] = dose: 50.0 mg/kg/injection, schedule: Q01DX009 (ip), vehicle: Klucel (hydroxypropylcellulose) (HPC)
[16] = dose: 100.0 mg/kg/injection, schedule: Q01DX009 (ip), vehicle: Klucel (hydroxypropylcellulose) (HPC)
[17] = dose: 25.0 mg/kg/injection, schedule: Q01DX009 (ip), vehicle: saline
[18] = dose: 15.0 mg/kg/injection, schedule: Q01DX005 (ip), vehicle: Klucel (hydroxypropylcellulose) (HPC)
[19] = dose: 30.0 mg/kg/injection, schedule: Q01DX005 (ip), vehicle: Klucel (hydroxypropylcellulose) (HPC)
[20] = dose: 60.0 mg/kg/injection, schedule: Q01DX005 (ip), vehicle: Klucel (hydroxypropylcellulose) (HPC)
[21] = dose: 200.0 mg/kg/injection, schedule: Q01DX009 (ip), vehicle: Klucel (hydroxypropylcellulose) (HPC)

Measured: T/C

CN1C(=O)NC(=O)C(C)(C2(Br)CCCCC2)C1=O (configuration not stated)
inactive: dose: 100.0 mg/kg/injection, schedule: Q01DX001 (ip), vehicle: Klucel (hydroxypropylcellulose) (HPC) 106 % of control | dose: 200.0 mg/kg/injection, schedule: Q01DX001 (ip), vehicle: Klucel (hydroxypropylcellulose) (HPC) 99 % of control | dose: 400.0 mg/kg/injection, schedule: Q01DX001 (ip), vehicle: Klucel (hydroxypropylcellulose) (HPC) 99 % of control

O=C1NNC(=O)C2(CCC(O)C2)c2ccncc21 (configuration not stated)
inactive: dose: 3.75 mg/kg/injection, schedule: Q01DX005 (ip), vehicle: saline 105 % of control | dose: 7.5 mg/kg/injection, schedule: Q01DX005 (ip), vehicle: saline 92 % of control | dose: 15.0 mg/kg/injection, schedule: Q01DX005 (ip), vehicle: saline 96 % of control | dose: 30.0 mg/kg/injection, schedule: Q01DX005 (ip), vehicle: saline 105 % of control

COc1c(-c2ccccc2)oc2c(ccc3occc32)c1=O
inactive: dose: 12.5 mg/kg/injection, schedule: Q01DX005 (ip), vehicle: Klucel (hydroxypropylcellulose) (HPC) 104 % of control | dose: 25.0 mg/kg/injection, schedule: Q01DX005 (ip), vehicle: Klucel (hydroxypropylcellulose) (HPC) 99 % of control | [1] 99 % of control | [2] 87 % of control | [3] 88 % of control

C=CC(=NC(C)(C)C)Nc1ccccc1C#N
inactive: dose: 3.12 mg/kg/injection, schedule: Q01DX009 (ip), vehicle: saline with Tween-80 106 % of control | dose: 6.25 mg/kg/injection, schedule: Q01DX009 (ip), vehicle: saline with Tween-80 106 % of control | dose: 12.5 mg/kg/injection, schedule: Q01DX009 (ip), vehicle: saline with Tween-80 100 % of control and 117 % of control

CCOC(=O)\C(C#N)=C/C=C/C(C)=C/Nc1ccc([N+](=O)[O-])cc1[N+](=O)[O-]
inactive: [1] 91 % of control | [2] 91 % of control | [3] 102 % of control

N#CC1(OC2OC(CO)C(O)C(O)C2O)C=CCC1 (configuration not stated)
inactive: [4] 101 % of control | [5] 103 % of control | [6] 98 % of control | [7] 96 % of control

O=C1OC2C(O)COC23OC(O)CCC13O (configuration not stated)
inactive: dose: 15.0 mg/kg/injection, schedule: Q01DX005 (ip), vehicle: saline with Tween-80 100 % of control | [8] 102 % of control | [9] 102 % of control | dose: 60.0 mg/kg/injection, schedule: Q01DX005 (ip), vehicle: saline 104 % of control | [10] 105 % of control | dose: 120.0 mg/kg/injection, schedule: Q01DX005 (ip), vehicle: saline 102 % of control | [11] 105 % of control | dose: 240.0 mg/kg/injection, schedule: Q01DX005 (ip), vehicle: saline 102 % of control

NCc1ccc(O)c(O)c1O
inactive: [12] 121 % of control and 123 % of control | [13] 118 % of control and 120 % of control | [14] 124 % of control and 88 % of control

CC1(C)OCC(C2OC3OC(C)(C)OC3/C2=N/NC(=O)c2cc3cc(OCc4ccccc4)ccc3[nH]2)O1 (configuration not stated)
inactive: dose: 6.25 mg/kg/injection, schedule: Q01DX005 (ip), vehicle: saline 93 % of control | dose: 12.5 mg/kg/injection, schedule: Q01DX005 (ip), vehicle: saline 93 % of control | [4] 88 % of control | [7] 94 % of control

CCOC(=O)CC1(C)C(=O)CCCC1=O
inactive: dose: 100.0 mg/kg/injection, schedule: Q04DX003 (ip), vehicle: saline 101 % of control | dose: 200.0 mg/kg/injection, schedule: Q04DX003 (ip), vehicle: saline 100 % of control | dose: 400.0 mg/kg/injection, schedule: Q04DX003 (ip), vehicle: saline 100 % of control

C=C(C)C(=O)Nc1ccc2nn(-c3ccccc3O)nc2c1
inactive: [12] 93 % of control | [13] 86 % of control | [14] 94 % of control

CCCCCCCC#CC1(C(O)CC)Sc2ccccc2N1C (configuration not stated)
inactive: [9] 107 % of control | [10] 101 % of control | [11] 105 % of control

c1ccc2c(c1)SP(P1Sc3ccccc3S1)S2
inactive: [15] 100 % of control | [16] 107 % of control

COC(=O)C(C)CP(=O)(OC)OC (configuration not stated)
inactive: [5] 99 % of control | [6] 97 % of control | [7] 99 % of control

CN=C/C(C(C)=O)=C(\C)O
inactive: dose: 12.5 mg/kg/injection, schedule: Q01DX009 (ip), vehicle: saline 103 % of control | [17] 105 % of control | [12] 101 % of control and 106 % of control | [13] 112 % of control and 91 % of control

COc1ccc(CSC(=S)Nc2ccc(Br)c(C)c2)cc1
inactive: dose: 50.0 mg/kg/injection, schedule: Q01DX009 (ip), vehicle: suspension in saline 96 % of control | dose: 100.0 mg/kg/injection, schedule: Q01DX009 (ip), vehicle: suspension in saline 101 % of control | dose: 200.0 mg/kg/injection, schedule: Q01DX009 (ip), vehicle: suspension in saline 109 % of control

CCC1CCCCN1C (configuration not stated)
inactive: [4] 103 % of control | [17] 105 % of control | [5] 98 % of control | [12] 110 % of control | [6] 95 % of control

CNCCCC12CC(c3ccccc31)c1ccccc12
inactive: dose: 50.0 mg/kg/injection, schedule: Q01DX009 (ip), vehicle: saline with Tween-80 94 % of control

c1ccc2sc(NCCSSCCNc3nc4ccccc4s3)nc2c1
inactive: dose: 25.0 mg/kg/injection, schedule: Q01DX009 (ip), vehicle: other 100 % of control | dose: 50.0 mg/kg/injection, schedule: Q01DX009 (ip), vehicle: other 86 % of control and 92 % of control | dose: 100.0 mg/kg/injection, schedule: Q01DX009 (ip), vehicle: other 90 % of control | dose: 200.0 mg/kg/injection, schedule: Q01DX009 (ip), vehicle: other 90 % of control and 93 % of control

COC1(OC)OC2=C(OC1(OC)OC)c1ccccc1C2=O
inactive: dose: 7.5 mg/kg/injection, schedule: Q01DX005 (ip), vehicle: Klucel (hydroxypropylcellulose) (HPC) 114 % of control | [18] 114 % of control and 122 % of control | [19] 114 % of control and 115 % of control | [20] 111 % of control and 115 % of control (2×)

O=C1Nc2ccccc2C(=O)C1=Ic1ccccc1
inactive: [18] 101 % of control | [19] 104 % of control | [1] 94 % of control | [20] 104 % of control and 88 % of control | [2] 91 % of control

N#Cc1ncc(C(Cl)Cl)nc1Cl
inactive: [17] 108 % of control | [12] 106 % of control

CCOC(=O)C1=C(C(=O)c2ccc(OC)cc2)C(c2ccc(Cl)cc2Cl)C(C(=O)c2ccc(OC)cc2)=C(C(=O)OCC)N1
inactive: [8] 96 % of control | [9] 91 % of control and 94 % of control | [10] 101 % of control | [11] 92 % of control

Cc1ccc2nc(NC(=S)NCCNC(=S)Nc3ccc4cc(C)ccc4n3)ccc2c1
inactive: [15] 94 % of control | [16] 92 % of control | [21] 90 % of control

CC1(C)Cc2oc(=Nc3ccccc3)n(-c3ccccc3)c(=O)c2C1
inactive: [15] 105 % of control | [16] 114 % of control | [21] 102 % of control

CCOCCN(CCOCC)c1ncnc2nc[nH]c12
inactive: [5] 102 % of control | [6] 102 % of control | [7] 98 % of control

— PubChem BioAssay AID330 (DTP/NCI, 2004)
